Test results reported in patent US20130225583A1, “SUBSTITUTED AMINO-TRIAZOLYL PDE10 INHIBITORS” (priority 2010, published 2013).

What follows are compounds tested against T1, human PDE10A2 (Homo sapiens, UniProt Q9Y233) (assay: PDE10 fluorescence polarization (IMAP FP) inhibition assay). Conditions: apparent inhibition constant; FAM-labeled cAMP 50 nM; lysate of AD293 cells transfected with human PDE10A2; room temperature; read-out: PDE10a Ki.
T1 construct: made in house; host or cells: AD293 cells, transiently transfected; The cytosolic supernatant of the lysate served as the enzyme
T1 sequence (Q9Y233 267-1055): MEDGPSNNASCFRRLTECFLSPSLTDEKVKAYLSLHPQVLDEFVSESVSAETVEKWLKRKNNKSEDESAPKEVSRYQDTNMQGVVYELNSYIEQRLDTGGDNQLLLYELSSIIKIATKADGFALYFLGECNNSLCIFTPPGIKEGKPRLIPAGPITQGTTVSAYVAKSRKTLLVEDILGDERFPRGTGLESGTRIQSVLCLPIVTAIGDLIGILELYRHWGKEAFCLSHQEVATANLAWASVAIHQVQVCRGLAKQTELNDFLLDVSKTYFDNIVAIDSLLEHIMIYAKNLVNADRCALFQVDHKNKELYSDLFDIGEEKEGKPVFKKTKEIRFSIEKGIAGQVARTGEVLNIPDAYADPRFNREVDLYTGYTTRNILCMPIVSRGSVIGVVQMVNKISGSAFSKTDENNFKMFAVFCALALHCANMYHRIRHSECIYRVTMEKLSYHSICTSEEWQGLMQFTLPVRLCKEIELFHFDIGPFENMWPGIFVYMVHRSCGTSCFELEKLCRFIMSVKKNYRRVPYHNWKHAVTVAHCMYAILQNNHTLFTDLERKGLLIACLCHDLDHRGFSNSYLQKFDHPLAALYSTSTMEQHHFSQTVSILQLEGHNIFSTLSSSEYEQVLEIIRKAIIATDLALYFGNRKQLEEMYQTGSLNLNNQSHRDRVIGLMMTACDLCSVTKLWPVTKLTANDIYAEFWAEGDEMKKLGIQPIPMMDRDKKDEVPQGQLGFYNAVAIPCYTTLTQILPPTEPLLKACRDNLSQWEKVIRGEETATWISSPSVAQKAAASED
Format: biochemical
Protocol: The activity of the compounds in accordance with the present invention as PDE10 inhibitors may be readily determined without undue experimentation using a fluorescence polarization (FP) methodology that is well known in the art (Huang, W., et al., J. Biomol Screen, 2002, 7: 215).
In a typical experiment the PDE 10 inhibitory activity of the compounds of the present invention was determined in accordance with the following experimental method. PDE 10A2 was amplified from human fetal brain cDNA (Clontech, Mountain View, Calif.) using a forward primer corresponding to nucleotides 56-77 of human PDE10A2 (Accession No. AF127480, Genbank Identifier 4894716), containing a Kozak consensus sequence, and a reverse primer corresponding to nucleotides 2406-2413 of human PDE10A2 (Accession No. AF127480, Genbank Identifier 4894716). Amplification with Easy-A polymerase (Stratagene, La Jolla, Calif.) was 95° C. for 2 minutes followed by thirty three cycles of 95° C. for 40 seconds, 55° C. for 30 seconds, and 72° C. for 2 minutes 48 seconds. Final extension was 72° C. for 7 minutes. The PCR product was TA cloned into pcDNA3.2-TOPO (Invitrogen, Carlsbad, Calif.) according to standard protocol. AD293 cells with 70-80% confluency were transiently transfected with human PDE10A2/pcDNA3.2-TOPO using Lipofectamine 2000 according to manufacturer specifications (Invitrogen, Carlsbad, Calif.). Cells were harvested 48 hours post-transfection and lysed by sonication (setting 3, 10×5 sec pulses) in a buffer containing 20 mM HEPES, 1 mM EDTA and protease inhibitor cocktail (Roche). Lysate was collected by centrifugation at 75,000×g for 20 minutes. Supernatant containing the cytoplasmic fraction was used for evaluation of PDE10A2 activity. The fluorescence polarization assay for cyclic nucleotide phosphodiesterases was performed using an IMAP® FP kit supplied by Molecular Devices, Sunnyvale, Calif. (product # R8139). IMAP® technology has been applied previously to phosphodiesterase assays (Huang, W., et al., J. Biomol Screen, 2002, 7: 215). Assays were performed at room temperature in 384-well microtiter plates with an incubation volume of 20.2 μL. Solutions of test compounds were prepared in DMSO and serially diluted with DMSO to yield 8 μL of each of 10 solutions differing by 3-fold in concentration, at 32 serial dilutions per plate. 100% inhibition is determined using a known PDE 10 inhibitor, which can be any compound that is present at 5,000 times its Ki value in the assay described as follows, such as papaverine (see Siuciak, et al. Neuropharmacology (2006) 51:386-396; Becker, et al. Behav Brain Res (2008) 186(2):155-60; Threlfell, et al., J Pharmacol Exp Ther (2009) 328(3):785-795), 2-{4-[pyridin-4-yl-1-(2,2,2-trifluoroethyl)-1H-pyrazol-3-yl]phenoxymethyl}quinoline succinic acid or 2-[4-(1-methyl-4-pyridin-4-yl-1H-pyrazol-3-yl)-phenoxymethyl]quinoline succinic acid (see Schmidt, et al. J Pharmacol Exp Ther (2008) 325:681-690; Threlfell, et al., J Pharmacol Exp Ther (2009) 328(3): 785-795). 0% of inhibition is determined by using DMSO (1% final concentrations). A Labcyte Echo 555 (Labcyte, Sunnyvale, Calif.) is used to dispense 200 nL from each well of the titration plate to the 384 well assay plate. A solution of enzyme ( 1/7000 dilution from aliquots; sufficient to produce 20% substrate conversion) and a separate solution of FAM-labeled cAMP PDE from Molecular Devices (product # R7506), at a final concentration of 50 nM are made in the assay buffer (10 mM Tris HCl, pH 7.2, 10 mM MgCl2, 0.05% NaN3 0.01% Tween-20, and 1 mM DTT). The enzyme is added to the assay plates by the addition of 10 μL of enzyme solution to each well, shaken to mix and incubated at room temperature for 60 minutes. The substrate is then added to the assay plates by the addition of 10 μL of substrate solution to each well, shaken to mix, and incubated at room temperature for 60 minutes. […]

| SMILES | Ki |
| --- | --- |
| COc1ccc(Cc2nc(N)nn2-c2cc(=O)n(C(C)C)cn2)cc1OC [1-69, 6-(3-amino-5-(3,4-dimethoxybenzyl)-1H-1,2,4-triazol-1-yl)-3-isopropylpyrimidin-4(3H)-one] | 540 nM |
| COc1ccc(Cc2nc(N)nn2-c2cc(=O)n(CCc3cccs3)cn2)cc1OC [1-51, 6-(3-amino-5-(3,4-dimethoxybenzyl)-1H-1,2,4-triazol-1-yl)-3-(2-(thiophen-2-yl)ethyl)pyrimidin-4(3H)-one] | 23 nM |
| COc1ccc(Cc2nc(N)nn2-c2ccc(Cl)c(Cl)c2)cc1OC [1-16, 1-(3,4-dichlorophenyl)-5-(3,4-dimethoxybenzyl)-1H-1,2,4-triazol-3-amine] | 153 nM |
| COc1ccc(Cc2nc(N)nn2-c2cc(Oc3ccc4ccccc4n3)nc(C)n2)cc1OC [1-83, 3-amino-5-(3,4-dimethoxybenzyl)-1-(2-methyl-6-(quinolin-2-yloxy)pyrimidin-4-yl)-1H-1,2,4-triazole-2,4-diium] | 47 nM |
| COc1ccc(CNc2nc(Cc3ccc(OC)c(OC)c3)n(-c3cc(Oc4ccccn4)nc(C)n3)n2)cc1 [1-76, 5-(3,4-dimethoxybenzyl)-N-(4-methoxybenzyl)-1-(2-methyl-6-(pyridin-2-yloxy)pyrimidin-4-yl)-1H 1,2,4-triazol-3-amine] | < 3.8 nM |
| COc1ccc(COc2cc(-n3nc(N)nc3Cc3ccc(OC)c(OC)c3)ncn2)cc1 [1-36, 5-(3,4-dimethoxybenzyl)-1-(6-(4-methoxybenzyloxy)pyrimidin-4-yl)-1H-1,2,4-triazol-3-amine] | 550 nM |
| COc1ccc(Cc2nc(N)nn2-c2cc(=O)n(CCN3CCOCC3)cn2)cc1OC [1-48, 6-(3-amino-5-(3,4-dimethoxybenzyl)-1H-1,2,4-triazol-1-yl)-3-(2-morpholinoethyl)pyrimidin-4(3H)-one] | < 3.8 nM |
| COc1ccc(CNc2nc(Cc3ccc(OC)c(OC)c3)n(-c3cc(Oc4ccccn4)nc(C)n3)n2)cc1 [1-80, 5-(3,4-dimethoxybenzyl)-N-(4-methoxybenzyl)-1-(2-methyl-6-(pyridin-2-yloxy)pyrimidin-4-yl)-1H-1,2,4-triazol-3-amine] | 490 nM |
| COc1ccc(Cc2nc(N)nn2-c2cc(OCC3CC3c3ccccc3)ncn2)cc1OC (stereo not shown) [1-67, 5-(3,4-dimethoxybenzyl)-1-(6-((2-phenylcyclopropyl)methoxy)pyrimidin-4-yl)-1H-1,2,4-triazol-3-amine] | 320 nM |

Next, values leading:

| Ki | SMILES |
| --- | --- |
| 24.8 nM | COc1ccc(CNc2nc(Cc3ccc(OC)c(OC)c3)n(C)n2)cc1 [1-11, 5-(3,4-dimethoxybenzyl)-N-(4-methoxybenzyl)-1-methyl-1H-1,2,4-triazol-3-amine] |
| 146 nM | COc1ccc(CNc2nc(Cc3ccc(OC)c(OC)c3)n(-c3ccccc3)n2)cc1 [1-10, 5-(3,4-dimethoxybenzyl)-N-(4-methoxybenzyl)-1-phenyl-1H-1,2,4-triazol-3-amine] |
| < 3.8 nM | COc1ccc(Cc2nc(N)nn2-c2cc(=O)n(Cc3nc4ccccc4s3)cn2)cc1OC [1-73, 6-(3-amino-5-(3,4-dimethoxybenzyl)-1H-1,2,4-triazol-1-yl)-3-(benzo[d]thiazol-2-ylmethyl)pyrimidin-4(3H)-one] |
| 250 nM | COc1ccc(Cc2nc(N)nn2-c2ccccn2)cc1OC [1-14, 5-(3,4-dimethoxybenzyl)-1-(pyridin-2-yl)-1H-1,2,4-triazol-3-amine] |
| 5.6 nM | COc1ccc(Cc2nc(N)nn2-c2cc(OCC3(c4ccccc4)CC3(F)F)ncn2)cc1OC (stereo not shown) [1-46, 1-(6-((2,2-difluoro-1-phenylcyclopropyl)methoxy)pyrimidin-4-yl)-5-(3,4-dimethoxybenzyl)-1H-1,2,4-triazol-3-amine] |
| 880 nM | COc1ccccc1COc1cc(-n2nc(N)nc2Cc2ccc(OC)c(OC)c2)ncn1 [1-35, 5-(3,4-dimethoxybenzyl)-1-(6-(2-methoxybenzyloxy)pyrimidin-4-yl)-1H-1,2,4-triazol-3-amine] |
| 35 nM | CCCOc1cc(-n2nc(N)nc2Cc2ccc(OC)c(OC)c2)ncn1 [1-63, 5-(3,4-dimethoxybenzyl)-1-(6-propoxypyrimidin-4-yl)-1H-1,2,4-triazol-3-amine] |
| 780 nM | COc1ccc(CNc2nc(Cc3ccc(OC)c(OC)c3)n(-c3ccccn3)n2)cc1 [1-13, 5-(3,4-dimethoxybenzyl)-N-(4-methoxybenzyl)-1-(pyridin-2-yl)-1H-1,2,4-triazol-3-amine] |
| < 3.8 nM | COc1ccc(Cc2nc(N)nn2-c2cc(=O)n(Cc3ccccn3)cn2)cc1OC [1-49, 6-(3-amino-5-(3,4-dimethoxybenzyl)-1H-1,2,4-triazol-1-yl)-3-(pyridin-2-ylmethyl)pyrimidin-4(3H)-one] |
| 70 nM | COc1ccc(Cc2nc(N)nn2-c2cc(=O)n(CCc3ccccn3)cn2)cc1OC [1-47, 6-(3-amino-5-(3,4-dimethoxybenzyl)-1H-1,2,4-triazol-1-yl)-3-(2-(pyridin-2-yl)ethyl)pyrimidin-4(3H)-one] |
